Assay results taken from US20180028552A1, “COMBINATION THERAPY FOR TREATING CANCER” (Epizyme, Inc., priority 2015, published 2018).
pIC50: −log10 of the molar value. Entries after “also recorded” stand apart in the source; their conditions may differ.

How the values were obtained:
ML-2 (MLL-AF6) cells [1] = test: Cellular differentiation assay in ML-2 cells; format: cell-based; conditions: for cellular differentiation (CD14+ differentiated cell population): 0.5 μM EPZ-5676, day not given
in vivo = conditions: nude, rat, ip
Experimental: (§2) To follow up on these findings and to determine if combinations were tolerable and efficacious in vivo, nude rats implanted subcutaneously with MV4-11 tumors were dosed using a range of doses and schedules. […] In preparation for an efficacy combination study, the Azacitidine and Cytarabine single agent activity in a MV4-11 model was determined.
(§3) 35 mg/kg/day EPZ-5676 was administered by continous IV (CIV) infusion while Azacitdine and Cytarabine was dosed daily by intraperitoneal injection at 2 and 200 mg/kg respectively. […] The tumor volumes are represented as the median tumor volumes mm^3 of the group.

NOMO-1 (MLL-AF9) cells [2] = test: Cell death / cell kill in NOMO-1 cells (Annexin V/7-AAD); format: cell-based; conditions: for resistance of cell line to the agent: sensitive is defined as IC50 ≤ 3 μM
Experimental: (§1) FIGS. 4A-4H are a series of schematics and graphs that depict the effect on cellular differentiation of AZA priming in AML cell lines. […] FIG. 4C depicts AZA dose response curves for an AML cell line panel. […] For the flow cytometry assays, Annexin V/7-AAD staining was used to assess cell death, and CD11b/CD14 antibodies were used to evaluate cellular differentiation. […] Flow cytometry assays were also performed to assess cellular differentiation and cell death following AZA priming followed by treatment of the cells with 0.5 μM EPZ-5676.

MV4-11 tumors = test: MV4-11 subcutaneous xenograft efficacy study in nude rats; format: in vivo, rat; conditions: single agent at the MTD (Azacitidine 2 mg/kg, Cytarabine 200 mg/kg), intraperitoneal once daily for 14 days
Experimental: as §2, §3

MV4-11 (MLL-AF4) cells [3] = test: Cell death / cell kill in MV4-11 cells (Annexin V/7-AAD flow cytometry, CTG, cell count, Incucyte caspase 3/7); format: cell-based; conditions: for cell death in a dose response experiment: single agent dose response
Source text: FIG. 2A depicts three experimental conditions: 1) MV4-11 cells were contacted with AZA for three consecutive days, followed by treatment with EPZ-5676 on the second, fourth, sixth, and ninth day; 2) the MV4-11 cells were contacted with vehicle for three consecutive days, followed by treatment with EPZ-5676 on the second, fourth, sixth, and ninth day; and 3) the MV4-11 cells were contacted with vehicle for three consecutive days, followed by contact with vehicle on the second, fourth, sixth, and ninth day.
FIGS. 5A-5F are a series of graphs that depict real-time imaging to study the effect of AZA priming on MV4-11 cells utilizing Incucyte Zoom® for suspension cell imaging. […] The Kinetic Caspase 3/7 reagent was used to assess cell death (FIG. 5B). For these assays, 6,000 cells were plated per well of a 96-well plate and dosed with EPZ-5676 using a ten point concentration gradient starting from 10 μM. 1× caspase dye was then added to each well. FIG. 5C is a series of graphs that depict real-time monitoring of cell death using Caspase 3/7 kinetic dye. […] FIG. 5E is a series of graphs that depict real-time monitoring of AUC Growth by Red object (labeled cell) count. FIG. 5F is a series of graphs that depicts cellular AUC growth following vehicle or AZA priming followed by treatment with EPZ-5676, and control conditions including vehicle alone, DMSO.
In this study of Example 1, the flexibility of treatment schedules when EPZ-5676 was combined with Azacitidine in MLL-r cells was evaluated.
Compounds were evaluated for cell killing effects as single agents and in combination according to the methods described in the experimental setup.

RS4;11 (MLL-AF4) cells [4] = test: Cellular differentiation assay in RS4;11 cells; format: cell-based; conditions: for cellular differentiation: 0.5 μM EPZ-5676, day not given
RS4;11 (MLL-AF4) cells [5] = test: Cell death / cell kill in RS4;11 cells; format: cell-based; conditions: for cell death / cell kill: 0.5 μM EPZ-5676, day not given
ML-2 (MLL-AF6) cells [6] = test: Cell death / cell kill in ML-2 cells; format: cell-based; conditions: for cell death: 0.5 μM EPZ-5676, day not given
HOXA9 = HOXA9 expression; format: cell-based; conditions: dose dependent
Source text: For example, a gene expression assay that can be used includes the steps of (1) culturing cells (e.g., EOL-1, KOPM-88, Molm13, MV411, LOUCY, SemK2, Reh, HL60, BV173, or Jurkat cells) in the presence or absence of a compound (e.g., Compound A2 and/or a DNMT inhibitor); (2) harvesting the cells; (3) extracting the RNA using methods known in the art (e.g., Qiagen RNeasy Kit); (4) synthesizing cDNA from the extracted RNA (e.g., Applied Biosystems reverse transcriptase kit); (5) preparing qPCR reactions using, for example, primers and probes (e.g., predesigned labeled primer and probe sets for HOXA9, FLT3, MEIS1, MEIS2, TBP, BCL, DOT1L, and β2-microglobulin from Applied Biosystems), synthesized sample cDNA, and qPCR master mix reagent (e.g., Applied Biosystems Taqman universal PCR master mix); (6) running samples on PCR machine (e.g., Applied Biosystems); (7) analysis of the data and calculation of relative gene expression.

[7] = tested on: REH (non-rearranged control); test: Cell kill combination study in REH cells; format: cell-based; conditions: sensitive is defined as IC50 ≤ 3 μM
[8] = tested on: MLL rearranged leukemia xenograft; conditions: in vivo; cited from earlier work
NOMO-1 (MLL-AF9) cells [9] = test: Cellular differentiation assay (CD11b/CD14) in NOMO-1 cells; format: cell-based; conditions: 0.5 μM EPZ-5676; day not given
Experimental: as §1

[10] = tested on: histone H3K79 methylation; conditions: cited from earlier work
MEIS1 = MEIS1 mRNA expression in MV4-11 cell line; format: cell-based; conditions: with increased concentrations (dose dependent)
Experimental: FIGS. 1A-1D are a series of graphs that depict mRNA expression levels of MEIS1 (FIGS. 1A and 1C) and HOXA2 (FIGS. 1B and 1D) in the MV4-11 cell line following treatment with AZA (also referred to herein as Azacitidine) and EPZ-5676. The data depicted in FIGS. 1A and 1B are from assays in which various concentrations of EPZ-5676 or DMSO alone, in combination with 1 μM AZA QD×3, 0.3 μM AZA QD×3, or vehicle alone were contacted with the cultured MV4-11 cells. (QD=daily dosage; QD×3=three day treatment). […]

H3K79me2 = H3K79me2 ChIP-qPCR in MV4-11 cells; format: cell-based; conditions: 0.5 μM EPZ-5676; 0.5 μM QD×3 AZA
Experimental: FIGS. 3A-3D are a series of graphs that contain data obtained from H3K79me2 ChIP-qPCR assays of MV4-11 (MLL-AF4) cells at various time points following exposure to either vehicle alone, vehicle and 0.5 μM EPZ-5676, or 0.5 μM QD×3 AZA and 0.5 μM EPZ-5676.

MV4-11 (MLL-AF4) cells [11] = test: Cellular differentiation assay (CD11b/CD14 flow cytometry) in MV4-11 cells; format: cell-based
Experimental: FIGS. 4A-4H are a series of schematics and graphs that depict the effect on cellular differentiation of AZA priming in AML cell lines. FIGS. 4A and 4B are a series of schematics that depict the experimental setup of the assays performed to determine differentiation and cell death. FIG. 4C depicts AZA dose response curves for an AML cell line panel. FIGS. 4D-4G are a series of flow cytometry assays that were performed to assess cellular differentiation and cell death in the NOMO-1 acute myeloid leukemia cell line. For the flow cytometry assays, Annexin V/7-AAD staining was used to assess cell death, and CD11b/CD14 antibodies were used to evaluate cellular differentiation. […] Flow cytometry assays were also performed to assess cellular differentiation and cell death following AZA priming followed by treatment of the cells with 0.5 μM EPZ-5676.
FIGS. 6A-6D are a series of flow cytometry graphs that depict cellular differentiation and cell death following treatment of MV4-11 (MLL-AF4) cells with vehicle or AZA priming followed by 0.5 μM EPZ-5676, or vehicle only conditions.

[12] = 0.5 μM EPZ-5676 with or without AZA priming, day not given
[13] = sensitive is defined as IC50 ≤ 3 μM

SMILES: Nc1ncn([C@@H]2O[C@H](CO)[C@@H](O)[C@H]2O)c(=O)n1 [Azacitidine, reference compound]
- cellular differentiation (CD14+ differentiated cell population) (ML-2 (MLL-AF6) cells [1]): no effect
- MTD at 14 days (in vivo): 2 mg/kg
- resistance of cell line to the agent (NOMO-1 (MLL-AF9) cells [2]): resistant
- inhibition of subcutaneous MV4-11 tumor compared to vehicle control (MV4-11 tumors): 50%
- cell death in a dose response experiment (MV4-11 (MLL-AF4) cells [3]): AZA induces cell death in MV4-11 cells
- cellular differentiation (RS4;11 (MLL-AF4) cells [4]): no effect
- cell death / cell kill (RS4;11 (MLL-AF4) cells [5]): effect on cell death
- cell death (ML-2 (MLL-AF6) cells [6]): effect on cell death

SMILES: Nc1ccn([C@@H]2O[C@H](CO)[C@@H](O)[C@@H]2O)c(=O)n1 [Cytarabine]
- MTD at 14 days (in vivo): 200 mg/kg
- inhibition of subcutaneous MV4-11 tumor compared to vehicle control (MV4-11 tumors): 50%

SMILES: CC(C)N(C[C@H]1O[C@@H](n2cnc3c(N)ncnc32)[C@H](O)[C@@H]1O)[C@H]1C[C@@H](CCc2nc3cc(C(C)(C)C)ccc3[nH]2)C1 [EPZ-5676, pinometostat]
- cellular differentiation (CD14+ differentiated cell population) (ML-2 (MLL-AF6) cells [1]): no cell differentiation; also recorded: population as compared to no
- differentiation (ML-2 (MLL-AF6) cells [1]; Day 6): No differentiation
- differentiation (ML-2 (MLL-AF6) cells [1]; Day 10): No differentiation
- HOXA9 expression (HOXA9): reduces
- resistance of cell line to the agent [7]: resistant
- tumor response [8]: complete tumor regressions
- cell death (NOMO-1 (MLL-AF9) cells [2]; 0.5 μM EPZ-5676, day not given): no appreciable cell death
- cell kill (NOMO-1 (MLL-AF9) cells [2]; Day 6): No cell kill with EPZ-
- cell kill (NOMO-1 (MLL-AF9) cells [2]; Day 10): No cell kill with EPZ-
- resistance of cell line to the agent (NOMO-1 (MLL-AF9) cells [2]): resistant
- amount of CD14+ cells (NOMO-1 (MLL-AF9) cells [9]): increase
- inhibition of intracellular histone H3K79 methylation [10]: selectively inhibits
- cell death (MV4-11 (MLL-AF4) cells [3]; [12]): no appreciable cell death
- pIC50 (MV4-11 (MLL-AF4) cells [3]; Homo sapiens, MV4-11, read-out: sensitivity of MV4-11 to EPZ-5676): ≥ 5.52
- cell death in a dose response experiment (MV4-11 (MLL-AF4) cells [3]): EPZ-5676 does not induce cell death in
- MEIS1 mRNA levels / expression (MEIS1): reduces
- cellular differentiation (RS4;11 (MLL-AF4) cells [4]): no cell differentiation
- differentiation (RS4;11 (MLL-AF4) cells [4]; Day 6): No differentiation
- differentiation (RS4;11 (MLL-AF4) cells [4]; Day 10): No differentiation
- H3K79me2 signal / mark (ChIP-qPCR, MEIS1 and HOXA9 genes) (H3K79me2): reduced; also recorded: single agent both decrease H3K79me2
- cell death / cell kill (RS4;11 (MLL-AF4) cells [5]): no cell death
- cell kill (RS4;11 (MLL-AF4) cells [5]; Day 6): No cell kill with EPZ-
- cell kill (RS4;11 (MLL-AF4) cells [5]; Day 10): No cell kill with EPZ-
- resistance of cell line to the agent (RS4;11 (MLL-AF4) cells [5]; [13]): resistant
- cell death (ML-2 (MLL-AF6) cells [6]): no cell death
- cell kill (ML-2 (MLL-AF6) cells [6]; Day 6): No cell kill with EPZ-
- cell kill (ML-2 (MLL-AF6) cells [6]; Day 10): No cell kill with EPZ-
- resistance of cell line to the agent (ML-2 (MLL-AF6) cells [6]; [13]): resistant
- cellular differentiation (CD14 positive population) (MV4-11 (MLL-AF4) cells [11]; [12]): no increase
- CD11b+ cell population (MV4-11 (MLL-AF4) cells [11]; Day 6): Depletion of CD11b+ cell
- CD14+ cell population (MV4-11 (MLL-AF4) cells [11]; Day 6): No increase in CD14+
- CD11b+ cell population (MV4-11 (MLL-AF4) cells [11]; Day 10): Depletion of CD11b+
- CD14+ cell population (MV4-11 (MLL-AF4) cells [11]; Day 10): No increase in CD14+—
